Earlier results, collected in patent US20200138036A1, “FUMIGANT FORMULATION” (Linde Aktiengesellschaft, priority 2017, published 2020).
Where a name gives a salt, the structure may show the parent alone.

Conditions: at 20° C.

CCOC=O [Ethyl formate]
vapour pressure: 25.9 kPa
